Measurements published in PubChem BioAssay AID330 (DTP/NCI, 2004).
“And” between values parts separate entries of the source, which are not always exact repeats. Equal entries are not always repeated. Inconclusive results and toxic doses are left out.

System: P388 leukemia ip, CD2F1 mice, survival T/C
Test: NCI In Vivo Anticancer Drug Screen. Data for tumor model P388 Leukemia (intraperitoneal) in CD2F1 (CDF1) mice
Conditions: endpoint: median survival time, higher = longer survival
Outline: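 Mice carrying the transplanted tumor received test compound or vehicle. Survival was recorded in each group, and the value is the treated-group measurement divided by that of the vehicle-treated control group.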

[1] = dose: 50.0 mg/kg/injection, schedule: Q01DX009 (ip), vehicle: Klucel (hydroxypropylcellulose) (HPC)
[2] = dose: 100.0 mg/kg/injection, schedule: Q01DX009 (ip), vehicle: Klucel (hydroxypropylcellulose) (HPC)
[3] = dose: 200.0 mg/kg/injection, schedule: Q01DX009 (ip), vehicle: Klucel (hydroxypropylcellulose) (HPC)
[4] = dose: 50.0 mg/kg/injection, schedule: Q01DX009 (ip), vehicle: saline with Tween-80
[5] = dose: 100.0 mg/kg/injection, schedule: Q01DX009 (ip), vehicle: saline with Tween-80
[6] = dose: 25.0 mg/kg/injection, schedule: Q01DX005 (ip), vehicle: Klucel (hydroxypropylcellulose) (HPC)
[7] = dose: 50.0 mg/kg/injection, schedule: Q01DX005 (ip), vehicle: Klucel (hydroxypropylcellulose) (HPC)
[8] = dose: 100.0 mg/kg/injection, schedule: Q01DX001 (ip), vehicle: saline with Tween-80
[9] = dose: 200.0 mg/kg/injection, schedule: Q01DX001 (ip), vehicle: saline with Tween-80
[10] = dose: 400.0 mg/kg/injection, schedule: Q01DX001 (ip), vehicle: saline with Tween-80
[11] = dose: 30.0 mg/kg/injection, schedule: Q01DX005 (ip), vehicle: saline with Tween-80
[12] = dose: 60.0 mg/kg/injection, schedule: Q01DX005 (ip), vehicle: saline with Tween-80
[13] = dose: 120.0 mg/kg/injection, schedule: Q01DX005 (ip), vehicle: saline with Tween-80
[14] = dose: 240.0 mg/kg/injection, schedule: Q01DX005 (ip), vehicle: saline with Tween-80
[15] = dose: 50.0 mg/kg/injection, schedule: Q04DX002 (ip), vehicle: saline with Tween-80
[16] = dose: 100.0 mg/kg/injection, schedule: Q01DX001 (ip), vehicle: Klucel (hydroxypropylcellulose) (HPC)
[17] = dose: 200.0 mg/kg/injection, schedule: Q01DX001 (ip), vehicle: Klucel (hydroxypropylcellulose) (HPC)
[18] = dose: 100.0 mg/kg/injection, schedule: Q01DX005 (ip), vehicle: Klucel (hydroxypropylcellulose) (HPC)
[19] = dose: 200.0 mg/kg/injection, schedule: Q01DX005 (ip), vehicle: Klucel (hydroxypropylcellulose) (HPC)

CNNC(=O)C(=O)n1ccnc1
T/C (dose: 50.0 mg/kg/injection, schedule: Q01DX005 (ip), vehicle: saline): 104 % of control
T/C (dose: 100.0 mg/kg/injection, schedule: Q01DX005 (ip), vehicle: saline): 103 % of control
T/C (dose: 200.0 mg/kg/injection, schedule: Q01DX005 (ip), vehicle: saline): 101 % of control

S=c1[nH]ccc2ccccc12
T/C [1]: 100 % of control
T/C [2]: 101 % of control
T/C [3]: 119 % of control
T/C (dose: 400.0 mg/kg/injection, schedule: Q01DX009 (ip), vehicle: Klucel (hydroxypropylcellulose) (HPC)): 105 % of control

CNC(=O)c1n[nH]c(C)c1N
T/C (dose: 12.5 mg/kg/injection, schedule: Q04DX003 (ip), vehicle: water): 94 % of control
T/C (dose: 25.0 mg/kg/injection, schedule: Q04DX003 (ip), vehicle: water): 100 % of control
T/C (dose: 50.0 mg/kg/injection, schedule: Q04DX003 (ip), vehicle: water): 103 % of control
T/C (dose: 100.0 mg/kg/injection, schedule: Q04DX003 (ip), vehicle: water): 103 % of control
T/C (dose: 200.0 mg/kg/injection, schedule: Q04DX003 (ip), vehicle: water): 99 % of control

CN1CCc2cc3c4cc2C1Cc1ccc(O)c(c1)Oc1ccc(cc1)CC1c2c(cc(O)c(c2O4)O3)CCN1C (stereo unspecified)
T/C (dose: 0.25 mg/kg/injection, schedule: Q01DX009 (ip), vehicle: saline): 103 % of control
T/C (dose: 0.5 mg/kg/injection, schedule: Q01DX009 (ip), vehicle: saline): 110 % of control
T/C (dose: 1.0 mg/kg/injection, schedule: Q01DX009 (ip), vehicle: saline): 103 % of control
T/C (dose: 2.0 mg/kg/injection, schedule: Q01DX009 (ip), vehicle: saline): 100 % of control
T/C (dose: 4.0 mg/kg/injection, schedule: Q01DX009 (ip), vehicle: saline): 94 % of control

Cc1noc(NS(=O)(=O)c2ccc(N=Nc3cc(N=Nc4ccc(S(=O)(=O)Nc5onc(C)c5C)cc4)c4c(NC(=O)C(Cl)Cl)cccc4c3OC(=O)C(Cl)Cl)cc2)c1C
T/C [4]: 94 % of control
T/C [5]: 100 % of control

CC1(C)CC(N2CCOCC2)=CC(=NCc2ccccc2)N1
T/C (dose: 12.5 mg/kg/injection, schedule: Q01DX005 (ip), vehicle: Klucel (hydroxypropylcellulose) (HPC)): 107 % of control
T/C [6]: 99 % of control
T/C [7]: 100 % of control and 101 % of control

CN1C(=O)C(O)(C2=C3OCOC3=CC(=O)C2=O)c2ccccc21 (stereo unspecified)
T/C (dose: 6.25 mg/kg/injection, schedule: Q01DX005 (ip), vehicle: saline): 105 % of control
T/C (dose: 12.5 mg/kg/injection, schedule: Q01DX005 (ip), vehicle: saline): 103 % of control
T/C (dose: 25.0 mg/kg/injection, schedule: Q01DX005 (ip), vehicle: saline): 102 % of control

CSc1ccccc1C(=S)N1CCOCC1
T/C [8]: 100 % of control
T/C [9]: 90 % of control
T/C [10]: 109 % of control

CC(C)NC(=O)OCc1c(COC(=O)NC(C)C)c2cccn2c2c1cnn2-c1ccccc1
T/C [11]: 87 % of control
T/C [12]: 89 % of control
T/C [13]: 89 % of control and 91 % of control
T/C [14]: 96 % of control

C#CCOCC(O)CCl (stereo unspecified)
T/C (dose: 100.0 mg/kg/injection, schedule: Q01DX009 (ip), vehicle: saline): 90 % of control
T/C (dose: 200.0 mg/kg/injection, schedule: Q01DX009 (ip), vehicle: saline): 105 % of control

O=c1ccc2cc(-c3ccncc3)cnc2[nH]1
T/C (dose: 25.0 mg/kg/injection, schedule: Q04DX002 (ip), vehicle: saline with Tween-80): 100 % of control
T/C [15]: 94 % of control

C=CCSc1nc2ccc(NCn3c(=S)sc4cc([N+](=O)[O-])ccc43)cc2s1
T/C (dose: 100.0 mg/kg/injection, schedule: Q04DX003 (ip), vehicle: Klucel (hydroxypropylcellulose) (HPC)): 90 % of control
T/C (dose: 200.0 mg/kg/injection, schedule: Q04DX003 (ip), vehicle: Klucel (hydroxypropylcellulose) (HPC)): 86 % of control

O=C(CBr)N1c2ccccc2S(=O)(=O)c2ccc3ccccc3c21
T/C [1]: 116 % of control and 122 % of control
T/C [3]: 119 % of control

O=C1c2ccc(Cl)cc2-n2c1nc1ccccc1c2=O
T/C [16]: 100 % of control
T/C [17]: 93 % of control
T/C (dose: 400.0 mg/kg/injection, schedule: Q01DX001 (ip), vehicle: Klucel (hydroxypropylcellulose) (HPC)): 93 % of control

COc1ccc2c(c1)CCC1=C2P(C)(=S)CC1 (stereo unspecified)
T/C [1]: 101 % of control
T/C [2]: 104 % of control
T/C [3]: 106 % of control

C[n+]1ccccc1/C=C/c1cccc([N+](=O)[O-])c1
T/C (dose: 5.0 mg/kg/injection, schedule: Q01DX009 (ip), vehicle: saline with Tween-80): 100 % of control
T/C (dose: 10.0 mg/kg/injection, schedule: Q01DX009 (ip), vehicle: saline with Tween-80): 109 % of control
T/C (dose: 20.0 mg/kg/injection, schedule: Q01DX009 (ip), vehicle: saline with Tween-80): 100 % of control

CNC(=O)OCc1c(COC(=O)NC)c(-c2ccc(Cl)cc2)n(C)c1C
T/C (dose: 6.25 mg/kg/injection, schedule: Q01DX009 (ip), vehicle: distilled water + Tween-80): 155 % of control
T/C (dose: 12.5 mg/kg/injection, schedule: Q01DX009 (ip), vehicle: distilled water + Tween-80): 150 % of control and 153 % of control

CSCc1cc(C)ccc1NC(C)=O
T/C [15]: 98 % of control
T/C [8]: 99 % of control
T/C (dose: 100.0 mg/kg/injection, schedule: Q04DX002 (ip), vehicle: saline with Tween-80): 98 % of control
T/C [9]: 99 % of control
T/C (dose: 200.0 mg/kg/injection, schedule: Q04DX002 (ip), vehicle: saline with Tween-80): 102 % of control
T/C [10]: 100 % of control

Cc1c(N)n[nH]c1-c1ccccc1
T/C (dose: 50.0 mg/kg/injection, schedule: Q01DX001 (ip), vehicle: Klucel (hydroxypropylcellulose) (HPC)): 100 % of control
T/C [16]: 99 % of control
T/C [17]: 106 % of control

CC(=O)OCC12C(OC(=O)c3ccccc3)C(=O)C3C(OC(C)=O)C1(OC3(C)C)C(C)(O)CC(OC(C)=O)C2OC(=O)/C=C/c1ccccc1 (stereo unspecified) (tested in a mixture with another compound)
T/C [6]: 100 % of control
T/C [7]: 100 % of control
T/C [18]: 102 % of control
T/C [19]: 102 % of control

COc1ccc2c(c1)CCn1c(C)c(COC(=O)NC3CCCCC3)c(COC(=O)NC3CCCCC3)c1-2
T/C (dose: 50.0 mg/kg/injection, schedule: Q01DX009 (ip), vehicle: distilled water + Tween-80): 151 % of control and 164 % of control
T/C (dose: 100.0 mg/kg/injection, schedule: Q01DX009 (ip), vehicle: distilled water + Tween-80): 92 % of control

COc1c2c(c(OC)c3c1C(=O)c1ccccc1C3=O)C(=O)CCC2
T/C [11]: 93 % of control
T/C [12]: 91 % of control
T/C [13]: 87 % of control
T/C [14]: 88 % of control

CC(C)=Nc1c(C(N)=O)c(-c2ccccc2)c(-c2ccccc2)n1-c1ccccc1
T/C [4]: 107 % of control
T/C [5]: 107 % of control
T/C (dose: 200.0 mg/kg/injection, schedule: Q01DX009 (ip), vehicle: saline with Tween-80): 98 % of control

CCNC(=O)N(CC(N)=O)c1ncc([N+](=O)[O-])s1
T/C (dose: 6.25 mg/kg/injection, schedule: Q01DX001 (ip), vehicle: saline): 105 % of control
T/C (dose: 12.5 mg/kg/injection, schedule: Q01DX001 (ip), vehicle: saline): 103 % of control
T/C (dose: 25.0 mg/kg/injection, schedule: Q01DX001 (ip), vehicle: saline): 104 % of control
T/C (dose: 50.0 mg/kg/injection, schedule: Q01DX001 (ip), vehicle: saline): 100 % of control and 103 % of control
T/C (dose: 100.0 mg/kg/injection, schedule: Q01DX001 (ip), vehicle: saline): 106 % of control and 97 % of control

CCOC(=O)C(=CNc1cc(OC)cc2cccnc12)C(=O)OCC
T/C [7]: 96 % of control
T/C [18]: 88 % of control
T/C [19]: 88 % of control
